Experimental data taken from ChEMBL document CHEMBL3045281, “Design, synthesis, and biological evaluation of new 3-hydroxy-2-oxo-3-trifluoromethylindole as potential HIV-1 reverse transcriptase inhibitors” (Med Chem Res, 2006).

How the values were obtained:
[1] = Cytotoxicity against Chlorocebus aethiops (African green monkey) Vero cells after 72 hr by trypan blue assay; assay type: cell-based; details: chlorocebus sabaeus
[2] = target: Human immunodeficiency virus type 1 reverse transcriptase (Human immunodeficiency virus 1, UniProt Q72547); experiment: Inhibition of RNA-dependent DNA polymerase activity of Human immunodeficiency virus 1 recombinant reverse transcriptase expressed in Escherichia coli using poly(rA)oligo(dT) template primer after 30 min

Row | IC50 [2] | SMILES | CC50 at 72 h [1]
1 | 7.1 µM | O=C1Nc2ccc(Cl)cc2C1(O)C(F)(F)F (stereo not given) | > 700 µM
2 | 3.61 µM | CN1C(=O)C(O)(C(F)(F)F)c2cc(Br)ccc21 (stereo not given) | > 250 µM
3 | 3.41 µM | CC(=O)N1C(=O)C(O)(C(F)(F)F)c2cc(Cl)ccc21 (stereo not given) | > 360 µM
4 | 8.37 µM | CC(=O)N1C(=O)C(O)(C(F)(F)F)c2cc(C)ccc21 (stereo not given) | > 650 µM
5 | 6.07 µM | O=C1Nc2ccccc2C1(O)C(F)(F)F (stereo not given) | > 650 µM
